The record followed here is ChEMBL document CHEMBL5523747, “Discovery of a Series of Orally Bioavailable Androgen Receptor Degraders for the Treatment of Prostate Cancer” (J Med Chem, 2024).

The source made the active and inactive calls.

For orientation: Emax means the size of the effect at its maximum, as opposed to the concentration needed. The term half-life denotes the time needed for the level to fall by half in the phase considered. A high value points to slow decline. One may read the DC50 as the concentration at which degradation of the target reaches its halfway point. By bioavailability is commonly meant dose-corrected exposure relative to a reference, in per cent. A high value points to good availability. A word on the GI50: it is the concentration at which growth is held to half of that of the control.

For series [1], the target named is T1, Protein cereblon/Androgen receptor (Homo sapiens, UniProt P10275+Q96SW2). The experiment in a line: PROTAC activity at AR/CRBN in human LNCaP cells assessed as maximal protein degradation measured after 24 hrs incubation by imaging IF assay relative to control. Format: cell-based.
Target sequence in this assay (P10275 whole entry, looked up): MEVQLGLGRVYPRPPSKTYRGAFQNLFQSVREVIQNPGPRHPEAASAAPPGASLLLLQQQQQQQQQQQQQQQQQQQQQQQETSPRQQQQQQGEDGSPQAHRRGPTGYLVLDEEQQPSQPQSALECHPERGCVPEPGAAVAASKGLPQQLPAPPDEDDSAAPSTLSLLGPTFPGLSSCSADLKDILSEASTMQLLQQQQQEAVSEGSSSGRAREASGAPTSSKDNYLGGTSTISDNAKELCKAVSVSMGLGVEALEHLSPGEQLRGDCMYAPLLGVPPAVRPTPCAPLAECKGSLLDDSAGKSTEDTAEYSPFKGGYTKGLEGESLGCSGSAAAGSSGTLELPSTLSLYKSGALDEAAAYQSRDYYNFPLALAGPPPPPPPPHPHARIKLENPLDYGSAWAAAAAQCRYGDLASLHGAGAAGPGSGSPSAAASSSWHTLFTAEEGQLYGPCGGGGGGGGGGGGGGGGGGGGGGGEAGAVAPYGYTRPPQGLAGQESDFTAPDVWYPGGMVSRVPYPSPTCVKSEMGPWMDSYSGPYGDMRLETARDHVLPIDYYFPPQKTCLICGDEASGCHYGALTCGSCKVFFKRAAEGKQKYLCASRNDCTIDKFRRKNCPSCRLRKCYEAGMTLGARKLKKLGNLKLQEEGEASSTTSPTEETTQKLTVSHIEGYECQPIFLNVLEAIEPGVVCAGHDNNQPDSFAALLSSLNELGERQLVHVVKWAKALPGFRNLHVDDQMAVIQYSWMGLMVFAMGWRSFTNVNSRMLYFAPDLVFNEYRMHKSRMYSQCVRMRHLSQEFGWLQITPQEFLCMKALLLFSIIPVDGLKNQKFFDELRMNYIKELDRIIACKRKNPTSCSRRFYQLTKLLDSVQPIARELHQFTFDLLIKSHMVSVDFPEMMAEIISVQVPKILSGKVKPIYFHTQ
Target sequence in this assay (Q96SW2 whole entry, looked up): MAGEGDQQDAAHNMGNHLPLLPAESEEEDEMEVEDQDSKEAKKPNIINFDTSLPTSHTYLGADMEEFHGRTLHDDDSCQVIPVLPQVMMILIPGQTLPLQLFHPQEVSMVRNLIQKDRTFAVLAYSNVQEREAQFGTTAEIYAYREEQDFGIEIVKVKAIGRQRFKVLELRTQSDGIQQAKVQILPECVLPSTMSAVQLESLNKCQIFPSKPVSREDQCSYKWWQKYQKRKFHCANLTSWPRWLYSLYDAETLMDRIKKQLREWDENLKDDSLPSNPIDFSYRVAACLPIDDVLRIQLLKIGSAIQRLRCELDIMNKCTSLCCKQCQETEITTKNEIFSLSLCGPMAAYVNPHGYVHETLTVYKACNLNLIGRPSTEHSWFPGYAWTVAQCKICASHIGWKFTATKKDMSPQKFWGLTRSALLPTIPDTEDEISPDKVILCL
The subject of series [2] is Protein cereblon/Androgen receptor (Homo sapiens), P10275+Q96SW2 [L702H]. Kind of series: PROTAC activity at CRBN/AR L702H mutant (unknown origin) expressed in human LNCaP cells assessed as maximal protein degradation measured after 24 hrs incubation by imaging IF assay relative to control. Format: cell-based.
The nature of series [3]: Volume of distribution at steady state in CD-1 mouse at 1 mg/kg, po and 0.5 mg/kg, iv bolus. In kind it is ADME, organism-based. The note with it: in vivo.
Series [4] is described as follows: Total plasma concentration in mouse xenografted with human LNCaP C4-2 cells at 30 mg/kg, po once daily measured after 10 days. Format: ADME, organism-based. Particulars: time 10 day, read-out: Cp(T).
A short description of series [5]: Half life in CD-1 mouse at 1 mg/kg, po and 0.5 mg/kg, iv. Format: ADME, organism-based. The note with it: in vivo.
Series [6] has as its target T1, Protein cereblon/Androgen receptor. Kind of series: PROTAC activity at AR/CRBN in human LNCaP cells assessed as protein degradation measured after 24 hrs incubation by imaging IF assay. In kind it is cell-based.
Target sequence in this assay (P10275 whole entry): as the sequence (P10275 whole entry, looked up) above
Target sequence in this assay (Q96SW2 whole entry): as the sequence (Q96SW2 whole entry, looked up) above
Series [7] in a line: Volume of distribution at steady state in CD-1 mouse at 1 mg/kg, po and 0.5 mg/kg, iv. Particulars: in vivo. In kind it is ADME, organism-based.
For series [8], the target named is T1, Protein cereblon/Androgen receptor. Kind of series: PROTAC activity at AR/CRBN in human LNCaP cells assessed as protein degradation measured after 24 hrs incubation in presence of excess enzalutamide AR binder by imaging IF assay. In kind it is cell-based.
Target sequence in this assay (P10275 whole entry, looked up): as the sequence (P10275 whole entry, looked up) above
Target sequence in this assay (Q96SW2 whole entry, looked up): as the sequence (Q96SW2 whole entry, looked up) above
The subject of series [9] is LNCaP C4-2. The experiment in a line: In vivo antitumor activity in human LNCaP C4-2 cells xenografted in mouse model assessed as tumor growth inhibition at 30 mg/kg, po once daily measured after 28 days relative to control. Particulars: LNCaP C4-2, 672 h, time 28 day, read-out: TGI. Format: functional. For orientation: In xenograft studies the graft and the host belong to different species.

The target of series [10] is T1, Protein cereblon/Androgen receptor. Kind of series: PROTAC activity at AR/CRBN in androgen-independent human LNCaP C4-2 cells assessed as protein degradation at 0.0001 to 10 uM measured after 24 hrs incubation by Western blot analysis. In kind it is cell-based. Particulars: dose 0.0001-10 µM. Background: A western blot detects proteins with antibodies after separation by electrophoresis.
Target sequence in this assay (P10275 whole entry, looked up): as the sequence (P10275 whole entry, looked up) above
Target sequence in this assay (Q96SW2 whole entry, looked up): as the sequence (Q96SW2 whole entry, looked up) above

The nature of series [11]: Half life in Han Wistar rat at 1 mg/kg, po and 0.5 mg/kg, iv bolus. Format: ADME, organism-based. Particulars: in vivo.
The nature of series [12]: Oral bioavailability in Han Wistar rat at 1 mg/kg. Format: ADME, organism-based. The note with it: in vivo.
Series [13] deals with T1, Protein cereblon/Androgen receptor. The experiment in a line: PROTAC activity at AR/CRBN in adrogen-sensitive human VCaP cells assessed as protein degradation at 0.0001 to 10 uM measured after 24 hrs incubation by Western blot analysis. In kind it is cell-based. The note with it: dose 0.0001-10 µM.
Target sequence in this assay (P10275 whole entry, looked up): as the sequence (P10275 whole entry, looked up) above
Target sequence in this assay (Q96SW2 whole entry, looked up): as the sequence (Q96SW2 whole entry, looked up) above
The target in series [14] is Protein cereblon/Androgen receptor (Homo sapiens, UniProt P10275+Q96SW2, L702H). Kind of series: PROTAC activity at CRBN/AR L702H mutant (unknown origin) expressed in human LNCaP cells assessed as protein degradation measured after 24 hrs incubation by imaging IF assay. Format: cell-based.
Sequence of Protein cereblon/Androgen receptor (Homo sapiens, UniProt P10275+Q96SW2, L702H) (P10275 whole entry L702H, stated change not applied): as the sequence (P10275 whole entry, looked up) above, with L702H counted along it
Sequence of Protein cereblon/Androgen receptor (Homo sapiens, UniProt P10275+Q96SW2, L702H) (Q96SW2 whole entry, stated change not applied): as the sequence (Q96SW2 whole entry, looked up) above
Series [15] is described as follows: Oral bioavailability in Beagle dog at 1 mg/kg. Format: ADME, organism-based, Canis lupus familiaris. The note with it: in vivo.
Series [16] deals with LNCaP. Kind of series: Anti-proliferative activity against human LNCaP cells assessed as number of live cells measured after 7 days by Sytox Green Nucleic Acid stain assay. Particulars: 168 h, time 7 day. Format: functional.
Series [17] can be described thus: Volume of distribution at steady state in Han Wistar rat at 1 mg/kg, po and 0.5 mg/kg, iv bolus. In kind it is ADME, organism-based. Particulars: in vivo.
Series [18] can be described thus: Volume of distribution at steady state in Beagle dog at 1 mg/kg, po and 0.5 mg/kg, iv infusion over 0.25 hrs. The note with it: in vivo. Format: ADME, organism-based, Canis lupus familiaris.
The subject of series [19] is LNCaP. The experiment in a line: Effect on AR mRNA level in human LNCaP cells at 0.0001 to 10 uM measured after 24 hrs incubation by QRTPCR analysis. In kind it is functional, cell-based. Particulars: dose 0.0001-10 µM.
Series [20] is described as follows: Half life in CD-1 mouse at 1 mg/kg, po and 0.5 mg/kg, iv bolus. The note with it: in vivo. In kind it is ADME, organism-based.
The target of series [21] is T1, Protein cereblon/Androgen receptor. The experiment in a line: PROTAC activity at AR/CRBN in human LNCaP cells assessed as protein degradation measured after 24 hrs incubation in presence of excess lenalidomide CRBN ligand by imaging IF assay. Format: cell-based.
Target sequence in this assay (P10275 whole entry, looked up): as the sequence (P10275 whole entry, looked up) above
Target sequence in this assay (Q96SW2 whole entry, looked up): as the sequence (Q96SW2 whole entry, looked up) above
Series [22] in a line: Half life in Beagle dog at 1 mg/kg, po and 0.5 mg/kg, iv infusion over 0.25 hrs. In kind it is ADME, organism-based, Canis lupus familiaris. The note with it: in vivo.
The nature of series [23]: Oral bioavailability in CD-1 mouse at 1 mg/kg. The note with it: in vivo. Format: ADME, organism-based.
Series [24] has as its system LNCaP C4-2. Kind of series: In vivo degradation of AR in human LNCaP C4-2 cells xenografted in mouse model assessed as degradation at 30 mg/kg, po once daily measured after 10 days relative to control. Format: functional. The note with it: time 10 day.

Regarding `COc1cc(N2CCN(CC3CCN(c4ccc(C5CCN(c6ccc(C#N)c(C(F)(F)F)c6F)CC5)cc4)CC3)CC2)cc2c1C(=O)N(C1CCC(=O)NC1=O)C2` (centres undefined), the Emax in [1] came out at 96%; in [2], 74%. Further, the Vdss worked out at 1.5 L/kg in series [3], 1.5 L/kg in [7], 9 L/kg in series [17] and 2.4 L/kg in series [18]. The concentration at 240 h in series [4] is about 20 µM. The half-life is 9 h in series [5], 11 h in series [11], 9 h in series [20] and 12.5 h in series [22]. Further, the half-maximal degradation concentration (DC50) in series [6] was 0.022 µM; in series [14], 0.092 µM. The outcome (in series [8]; with LNCaP [19]; in series [21]) was inactive. Moreover, in the series on LNCaP C4-2 [9], the inhibition in vivo at 30 mg/kg is 70%. Moreover, the outcome in series [10] and in series [13] was Active. The bioavailability in [12] came out at 29%; in series [15], 18%; in series [23], 62%. Moreover, the 50% growth inhibitory concentration (GI50) with LNCaP [16] turned out to be 0.074 µM. Besides, the Activity in the series with LNCaP C4-2 [24] is on record as over 90%.
